Measurements published in ChEMBL document CHEMBL1153597, “A new synthesis of caged GABA compounds for studying GABAA receptors” (Bioorg Med Chem Lett, 2009).
Active and inactive are the calls of the source.

Columns and labels:
Assay type in all cases: cell-based
Conditions in all cases: HEK-293T
[1] = molecular target: T1, Gamma-aminobutyric acid receptor subunit delta (Homo sapiens) (UniProt O14764); experiment: Neurotransmitter activity at GABAA delta receptor expressed in HEK293T cells assessed as release of GABA-induced membrane permeability to chloride ions by photolysis technique
T1 sequence (whole entry): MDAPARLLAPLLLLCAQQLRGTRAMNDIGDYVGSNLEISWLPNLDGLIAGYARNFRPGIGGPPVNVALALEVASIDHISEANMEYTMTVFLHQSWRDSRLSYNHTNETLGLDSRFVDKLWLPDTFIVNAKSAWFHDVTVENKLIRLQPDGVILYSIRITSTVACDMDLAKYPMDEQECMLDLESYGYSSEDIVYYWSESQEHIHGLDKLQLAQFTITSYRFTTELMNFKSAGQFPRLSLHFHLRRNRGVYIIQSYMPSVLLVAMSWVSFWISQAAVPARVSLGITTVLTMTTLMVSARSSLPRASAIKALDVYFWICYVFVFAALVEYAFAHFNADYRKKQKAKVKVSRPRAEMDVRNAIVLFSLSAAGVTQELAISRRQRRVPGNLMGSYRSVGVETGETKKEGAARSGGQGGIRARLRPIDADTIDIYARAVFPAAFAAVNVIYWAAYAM

[2] = molecular target: T2, Gamma-aminobutyric acid receptor subunit beta-2 (Homo sapiens) (UniProt P47870); experiment: Neurotransmitter activity at GABAA beta2 receptor expressed in HEK293T cells assessed as release of GABA-induced permeability to chloride ions by photolysis technique
T2 sequence (whole entry): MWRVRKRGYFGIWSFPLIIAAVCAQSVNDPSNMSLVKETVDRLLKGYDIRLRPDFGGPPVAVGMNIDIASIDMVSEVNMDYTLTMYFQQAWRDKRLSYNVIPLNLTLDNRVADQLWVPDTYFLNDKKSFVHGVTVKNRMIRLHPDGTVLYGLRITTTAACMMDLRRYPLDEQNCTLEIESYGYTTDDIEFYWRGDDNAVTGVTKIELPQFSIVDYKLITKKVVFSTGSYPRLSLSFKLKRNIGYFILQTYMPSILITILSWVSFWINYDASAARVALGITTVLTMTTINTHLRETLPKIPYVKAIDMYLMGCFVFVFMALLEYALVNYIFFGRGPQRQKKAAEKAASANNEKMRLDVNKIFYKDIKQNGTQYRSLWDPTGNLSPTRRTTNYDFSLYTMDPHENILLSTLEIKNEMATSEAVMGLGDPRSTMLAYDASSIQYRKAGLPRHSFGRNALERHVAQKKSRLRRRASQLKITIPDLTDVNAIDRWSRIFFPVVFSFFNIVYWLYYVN

[3] = molecular target: T3, Gamma-aminobutyric acid receptor subunit alpha-1 (Homo sapiens) (UniProt P14867); experiment: Neurotransmitter activity at GABAA alpha1 receptor expressed in HEK293T cells assessed as release of GABA-induced permeability to chloride ions by photolysis technique
T3 sequence (whole entry): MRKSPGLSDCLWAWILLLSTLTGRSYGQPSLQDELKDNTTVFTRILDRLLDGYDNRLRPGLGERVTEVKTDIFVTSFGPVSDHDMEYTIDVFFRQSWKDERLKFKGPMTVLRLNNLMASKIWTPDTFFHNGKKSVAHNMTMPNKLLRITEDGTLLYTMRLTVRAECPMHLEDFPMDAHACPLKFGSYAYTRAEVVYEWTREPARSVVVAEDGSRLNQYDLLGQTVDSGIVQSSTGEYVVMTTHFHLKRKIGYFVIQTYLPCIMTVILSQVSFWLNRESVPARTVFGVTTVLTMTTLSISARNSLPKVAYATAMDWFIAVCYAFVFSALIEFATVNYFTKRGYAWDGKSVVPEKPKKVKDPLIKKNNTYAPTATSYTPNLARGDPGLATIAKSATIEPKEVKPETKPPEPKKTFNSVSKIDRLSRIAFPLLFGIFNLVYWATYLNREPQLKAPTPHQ

Measured: Activity

CCOC(=O)CNC(=O)C(OC(=O)CCCN)c1cc(=O)oc2cc(N(CC)CC)ccc12 (stereo not drawn)
active: [1] | [2] | [3]
